Measurements taken from ChEMBL document CHEMBL1201862, “PubChem BioAssay data set” (2004).
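Grown in 96-well plates, cells were treated for 48 hours with each compound at five concentrations. Insufficient inhibition: endpoint recorded as highest concentration tested. The concentration for 50% growth inhibition is given as GI50.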 The source made the active and inactive calls. Rule as the data show it: active = GI50 up to about 1.1 µM and inactive = higher.

Assays:
Test in all cases: growth of human tumour cells (NCI), 48 h
SNB-78 = tested on: SNB-78
DMS-273 = tested on: DMS-273
DMS-114 = tested on: DMS-114
LXFL 529 = tested on: LXFL 529
DLD-1 = tested on: DLD-1
M19-MEL = tested on: M19-MEL
XF498 = tested on: XF498
HOP-18 = tested on: HOP-18
RXF 631 = tested on: RXF 631

Structure (SMILES)	GI50 (SNB-78)	GI50 (DMS-273)	GI50 (DMS-114)	GI50 (LXFL 529)	GI50 (DLD-1)	GI50 (M19-MEL)	GI50 (XF498)	GI50 (HOP-18)	GI50 (RXF 631)
CSC(=S)N(C)c1nc(N(C)C)s[s+]1	> 100 µM (inactive)	> 100 µM (inactive)	> 100 µM (inactive)	> 100 µM (inactive)	> 100 µM (inactive)	> 100 µM (inactive)	> 100 µM (inactive)	> 100 µM (inactive)	
Cc1ccc(NCC(=O)N2CC(=O)Nc3ccccc32)cc1	> 100 µM (inactive)	> 100 µM (inactive)	> 100 µM (inactive)	> 100 µM (inactive)	> 100 µM (inactive)	> 100 µM (inactive)	75.7 µM (inactive)	> 100 µM (inactive)	
Fc1nc(F)nc(-c2c3ccccc3c3n2CCS3)n1	23 µM (inactive)	76.2 µM (inactive)	> 100 µM (inactive)	58.1 µM (inactive)	57.8 µM (inactive)	> 100 µM (inactive)	23.4 µM (inactive)		
Cc1cc(C)nc(NS(=O)(=O)c2ccc(Nc3c4ccc(Cl)cc4nc4c(C(=O)NCCN(C)C)cccc34)cc2)n1	> 100 µM (inactive)	> 100 µM (inactive)	> 100 µM (inactive)	> 100 µM (inactive)	> 100 µM (inactive)	> 100 µM (inactive)	> 100 µM (inactive)		> 100 µM (inactive)
COC1=CC(=O)C2C(C1=O)C(c1ccc(OC)c(OC)c1)[C@H]2C (some centres not stated)	> 100 µM (inactive)	23.7 µM (inactive)	19.5 µM (inactive)	17.3 µM (inactive)	17.1 µM (inactive)	20.8 µM (inactive)	16.2 µM (inactive)	20.7 µM (inactive)	16.4 µM (inactive)
CCCCN(CCCC)C(=O)C(=O)C(C(=O)C(=O)OC)c1nc2ccccc2o1 (configuration not stated)	> 100 µM (inactive)	> 100 µM (inactive)	54 µM (inactive)	> 100 µM (inactive)	53.8 µM (inactive)	> 100 µM (inactive)	64.3 µM (inactive)	> 100 µM (inactive)	79.3 µM (inactive)
CC(=O)OCc1cc(OC(C)=O)cnc1COC(C)=O		> 100 µM (inactive)	> 100 µM (inactive)	> 100 µM (inactive)	> 100 µM (inactive)	> 100 µM (inactive)	> 100 µM (inactive)	> 100 µM (inactive)	> 100 µM (inactive)
C1=CC=C2NCCCCCCC/N=C3/C=CC=CC=C3NCCCCCCC/N=C\2C=C1		19.1 µM (inactive)		> 100 µM (inactive)	49.4 µM (inactive)	> 100 µM (inactive)	> 100 µM (inactive)		13 µM (inactive)
C/N=C(\NC(=S)N(C)C)N(C)C	> 100 µM (inactive)	> 100 µM (inactive)	> 100 µM (inactive)	> 100 µM (inactive)	> 100 µM (inactive)	> 100 µM (inactive)	> 100 µM (inactive)	> 100 µM (inactive)	> 100 µM (inactive)
Cn1c2ccccc2c(=O)c2c([N+](=O)[O-])ccc(NCCN)c21	14.5 µM (inactive)	3.86 µM (inactive)	11.5 µM (inactive)	8.63 µM (inactive)		13 µM (inactive)	15.1 µM (inactive)	13.3 µM (inactive)	
CCCCCCCCCCCC[N+]12CC[N+](CCN)(CC1)CC2	77.8 µM (inactive)	14.8 µM (inactive)	34.1 µM (inactive)	81.7 µM (inactive)	82.8 µM (inactive)	> 100 µM (inactive)	> 100 µM (inactive)	75.3 µM (inactive)	> 100 µM (inactive)
O=C(O)CSc1nnc(/C=C/c2ccccc2)[nH]1	> 100 µM (inactive)	> 100 µM (inactive)	> 64.3 µM (inactive)	> 100 µM (inactive)	> 100 µM (inactive)	> 100 µM (inactive)	> 100 µM (inactive)	> 92.7 µM (inactive)	
O=C1c2ccccc2C2(O)Nc3cc(O)ccc3C12O (configuration not stated)	> 100 µM (inactive)	> 100 µM (inactive)	> 100 µM (inactive)	> 100 µM (inactive)	> 100 µM (inactive)			> 100 µM (inactive)	> 100 µM (inactive)
CCOc1ccc(/C=C/c2cc(OC)c(OC)c(OC)c2)cc1	0.341 µM (active)	0.548 µM (active)	1.36 µM (inactive)	0.809 µM (active)	1.9 µM (inactive)	3.03 µM (inactive)	4.4 µM (inactive)	> 75.2 µM (inactive)	0.879 µM (active)
O=C1C2c3[nH]c4ccccc4c3C3CCCCCC3C2C(=O)N1c1ccccc1 (configuration not stated)	11.7 µM (inactive)	37.8 µM (inactive)	> 49.9 µM (inactive)	> 86.9 µM (inactive)	58.2 µM (inactive)	> 58.1 µM (inactive)	22.9 µM (inactive)	19.5 µM (inactive)	
NCCCCCS(=O)(=O)O	> 100 µM (inactive)	> 100 µM (inactive)	> 100 µM (inactive)	> 100 µM (inactive)	> 100 µM (inactive)	> 100 µM (inactive)		> 100 µM (inactive)	> 100 µM (inactive)
O=C1/C(=C/c2ccc(C(=O)O)cc2)CNC/C1=C\c1ccc(C(=O)O)cc1	> 100 µM (inactive)	> 100 µM (inactive)	> 100 µM (inactive)	> 100 µM (inactive)	> 100 µM (inactive)	> 100 µM (inactive)	> 100 µM (inactive)	> 100 µM (inactive)	> 100 µM (inactive)
O=C1c2ccccc2C(=O)c2c1ccc1conc21	2.84 µM (inactive)	3.44 µM (inactive)	1.83 µM (inactive)	1.8 µM (inactive)	2.55 µM (inactive)	1.32 µM (inactive)		13.4 µM (inactive)	2.85 µM (inactive)
CN(C)CCNC(=O)c1ccc(C(=O)NCCN(C)C)c2nc3ccccc3cc12	1.05 µM (active)	0.538 µM (active)	0.553 µM (active)	0.729 µM (active)	0.516 µM (active)	0.8 µM (active)		1.95 µM (inactive)	1 µM (active)
C=C1CC(OC)(C(OC)C(=O)N(C)[C@H]2OCO[C@H]3C2O[C@H](C[C@@H](COC)OC)C(C)(C)C3OC)O[C@H](C)[C@@H]1C (some centres not stated)	12.2 µM (inactive)	6.9 µM (inactive)	11.2 µM (inactive)		18.3 µM (inactive)		7.91 µM (inactive)	25.5 µM (inactive)	
COc1cc(Cl)cc(O)c(=O)c1OC	16.9 µM (inactive)	32.2 µM (inactive)	24 µM (inactive)	53.3 µM (inactive)	37.3 µM (inactive)	45.8 µM (inactive)	> 59.8 µM (inactive)	71.6 µM (inactive)	
N#CCCN(CCC#N)c1ccc(/C=C2\N=C(CN3C(=O)c4ccccc4C3=O)OC2=O)cc1		> 100 µM (inactive)	> 100 µM (inactive)	> 100 µM (inactive)		> 100 µM (inactive)	> 100 µM (inactive)		> 100 µM (inactive)
Cc1ccc(C2CC(c3ccco3)=NN2c2ccccc2)o1 (configuration not stated)	> 100 µM (inactive)	> 100 µM (inactive)	> 100 µM (inactive)	> 100 µM (inactive)		> 100 µM (inactive)	> 100 µM (inactive)		
COC(=O)C1CC(c2ccc(Cl)cc2)=NO1 (configuration not stated)	> 100 µM (inactive)	> 100 µM (inactive)	> 100 µM (inactive)	> 100 µM (inactive)	> 100 µM (inactive)	> 100 µM (inactive)		> 100 µM (inactive)	
CN1CCC(c2c(O)cc(O)c3c(=O)cc(-c4ccccc4Cl)oc23)C(O)C1 (configuration not stated)	0.118 µM (active)	0.0335 µM (active)		0.0769 µM (active)	0.0368 µM (active)		0.0492 µM (active)	0.102 µM (active)	
